Laboratory results taken from publication PMC10135378, “Synthesis of Novel N-Heterocyclic Carbene-Ruthenium (II) Complexes, “Precious” Tools with Antibacterial, Anticancer and Antioxidant Properties” (Antibiotics, 2023).

Legend:
human topoisomerase I = molecular target: T1, human topoisomerase I (Homo sapiens, UniProt P11387); test: hTopo I relaxation assay; format: biochemical; conditions: 10 µM, 2 h at 37 °C, supercoiled pHOT1 substrate
T1 construct: purchased TopoGEN, Port Orange, FL, USA
T1 sequence (P11387 1-765): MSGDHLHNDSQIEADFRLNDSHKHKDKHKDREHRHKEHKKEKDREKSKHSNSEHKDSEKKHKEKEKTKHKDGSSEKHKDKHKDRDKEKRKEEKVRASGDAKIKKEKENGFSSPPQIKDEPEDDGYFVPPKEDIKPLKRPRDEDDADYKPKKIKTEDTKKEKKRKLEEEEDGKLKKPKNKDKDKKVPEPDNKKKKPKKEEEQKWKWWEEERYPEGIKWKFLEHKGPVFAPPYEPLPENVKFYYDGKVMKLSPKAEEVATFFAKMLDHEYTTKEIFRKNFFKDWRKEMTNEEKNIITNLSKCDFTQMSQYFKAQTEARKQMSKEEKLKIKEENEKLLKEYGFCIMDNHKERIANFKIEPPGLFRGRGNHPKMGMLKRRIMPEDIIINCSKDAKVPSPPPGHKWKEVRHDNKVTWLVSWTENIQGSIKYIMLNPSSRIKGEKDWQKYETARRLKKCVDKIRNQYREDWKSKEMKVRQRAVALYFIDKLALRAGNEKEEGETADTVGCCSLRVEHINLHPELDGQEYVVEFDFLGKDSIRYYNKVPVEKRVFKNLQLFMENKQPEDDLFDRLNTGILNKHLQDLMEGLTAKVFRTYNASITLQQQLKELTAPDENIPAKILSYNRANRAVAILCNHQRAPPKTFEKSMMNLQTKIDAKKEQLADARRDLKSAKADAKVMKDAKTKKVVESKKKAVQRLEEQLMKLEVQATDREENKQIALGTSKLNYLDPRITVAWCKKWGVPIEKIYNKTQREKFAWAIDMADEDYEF
Text: We performed the hTopo I relaxation assay using as a substrate the supercoiled plasmid pHOT1 and exposing the enzyme to our selected complexes or vehicle. […] Indeed, in lanes 4 and 5, corresponding to the enzymatic reactions in the presence of complexes RANHC-V or -VI, only the supercoiled DNA was present, noticeable as a single band in the lower portion of the agarose gel. Contrarily, in the CTRL (vehicle) reaction (Figure 3, lane 3), multiple bands related to the relaxed DNA products were detected.
hTopoI relaxation assays were done using the supercoiled pHOT1 as substrate, with the recombinant hTopoI (TopoGEN, Port Orange, FL, USA) and compounds RANHC-V and -VI or DMSO (CTRL) following the manufacturer’s protocol (TopoGEN, Port Orange, FL, USA), with some changes.
Figure 3 Human topoisomerase I […] assay. hTopo I was incubated with the vehicle alone (CTRL) or with the tested complexes RANHC-V and -VI at 10 µM for 2 h at 37 °C, using the supercoiled DNA pHOT1 as substrate. 1, relaxed DNA marker; 2, pHOT1; 3, CTRL (DMSO); 4 and 5, Ru-NHC complexes RANHC-V and -VI (10 µM), respectively. The image is representative of three separate experiments.

human topoisomerase II = molecular target: T2, human topoisomerase II (Homo sapiens, UniProt P11388); test: hTopo II decatenation assay; format: biochemical; conditions: 10 and 50 µM, 2 h at 37 °C, kDNA substrate
T2 construct: purchased TopoGEN, Port Orange, FL
Description: In Figure 4, only the results obtained at 50 μM concentration are reported (the same result was obtained at 10 μM) and as visible; under RANHC-V and -VI exposure, two bands related to the decatenation products at the bottom of the gel were detected (Figure 4, lanes 5 and 6), similarly to the CTRL reaction (Figure 4, lane 4).
Similarly, hTopoII decatenation assays were carried out incubating the kinetoplast DNA (kDNA) substrate with the hTopoII (TopoGEN, Port Orange, FL) and compounds RANHC-V and -VI or DMSO (CTRL) following the manufacturer’s procedures (TopoGEN, Port Orange, FL, USA), with some changes.
Figure 4 Human topoisomerase II decatenation assay. hTopo II was incubated with the vehicle alone (CTRL) or with the tested complexes RANHC-V and -VI at 50 µM for 2 h at 37 °C, using the kinetoplast DNA (kDNA) as the substrate. 1, linear DNA marker; 2, decatenated DNA marker; 3, kinetoplast DNA; 4, CTRL (DMSO); 5 and 6, Ru-NHC complexes RANHC-V and -VI (50 µM), respectively. The image is representative of three separate experiments.

T2 sequence (P11388 whole entry): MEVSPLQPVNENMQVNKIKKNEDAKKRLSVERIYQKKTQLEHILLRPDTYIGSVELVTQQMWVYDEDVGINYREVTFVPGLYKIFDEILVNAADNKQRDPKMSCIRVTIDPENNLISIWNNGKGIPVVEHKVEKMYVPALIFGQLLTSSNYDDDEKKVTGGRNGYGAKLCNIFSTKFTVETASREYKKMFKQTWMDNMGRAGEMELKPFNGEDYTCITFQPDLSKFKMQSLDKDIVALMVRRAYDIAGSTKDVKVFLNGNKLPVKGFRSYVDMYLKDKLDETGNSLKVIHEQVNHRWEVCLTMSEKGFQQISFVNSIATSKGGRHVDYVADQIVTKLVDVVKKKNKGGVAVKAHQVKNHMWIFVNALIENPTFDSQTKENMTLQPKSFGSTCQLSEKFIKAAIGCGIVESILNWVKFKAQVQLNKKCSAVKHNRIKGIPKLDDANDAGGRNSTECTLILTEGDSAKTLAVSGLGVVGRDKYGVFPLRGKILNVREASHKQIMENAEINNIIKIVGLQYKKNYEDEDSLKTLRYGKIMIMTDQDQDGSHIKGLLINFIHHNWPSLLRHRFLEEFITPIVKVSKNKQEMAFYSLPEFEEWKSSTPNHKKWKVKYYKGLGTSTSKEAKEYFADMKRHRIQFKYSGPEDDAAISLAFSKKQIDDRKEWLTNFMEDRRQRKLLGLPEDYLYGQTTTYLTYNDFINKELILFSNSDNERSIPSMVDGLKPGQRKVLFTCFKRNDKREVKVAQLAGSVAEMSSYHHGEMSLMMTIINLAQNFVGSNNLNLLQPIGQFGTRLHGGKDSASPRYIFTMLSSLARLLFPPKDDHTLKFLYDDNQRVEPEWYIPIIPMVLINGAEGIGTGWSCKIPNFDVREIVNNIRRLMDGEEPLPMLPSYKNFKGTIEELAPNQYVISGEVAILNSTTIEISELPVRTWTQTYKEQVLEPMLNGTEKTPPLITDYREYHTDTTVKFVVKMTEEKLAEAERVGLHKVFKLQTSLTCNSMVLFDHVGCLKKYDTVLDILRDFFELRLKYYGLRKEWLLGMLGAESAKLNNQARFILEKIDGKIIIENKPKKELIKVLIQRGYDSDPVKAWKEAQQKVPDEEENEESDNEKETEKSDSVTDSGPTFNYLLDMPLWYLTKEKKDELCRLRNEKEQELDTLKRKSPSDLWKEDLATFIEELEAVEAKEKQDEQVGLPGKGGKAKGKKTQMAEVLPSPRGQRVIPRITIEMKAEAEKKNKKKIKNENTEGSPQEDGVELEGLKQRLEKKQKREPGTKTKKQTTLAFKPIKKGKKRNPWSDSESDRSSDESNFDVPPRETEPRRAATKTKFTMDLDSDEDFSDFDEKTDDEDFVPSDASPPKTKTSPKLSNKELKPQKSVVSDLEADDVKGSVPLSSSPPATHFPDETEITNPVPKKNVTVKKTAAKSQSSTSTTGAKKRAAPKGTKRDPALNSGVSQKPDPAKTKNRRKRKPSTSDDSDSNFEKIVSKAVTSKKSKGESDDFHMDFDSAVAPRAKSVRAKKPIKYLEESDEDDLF

| inhibition of hTopo I activity (human topoisomerase I) | inhibition of hTopo II activity (human topoisomerase II) | Compound |
| --- | --- | --- |
| totally inhibit | absence of any inhibitory activity | COC(Cn1[c](=[Ru]([Cl])[Cl])n(C)c2ccccc21)c1ccccc1.Cc1ccc(C(C)C)cc1 (stereo not shown) [RANHC-VI] |
| totally inhibit | absence of any inhibitory activity | COC(Cn1c(Cl)c(Cl)n(C)[c]1=[Ru]([Cl])[Cl])c1ccccc1.Cc1ccc(C(C)C)cc1 (stereo not shown) [RANHC-V] |
